Experimental data taken from US10183950B2, “Thienopyrimidine inhibitors of atypical protein kinase C” (Cancer Research Technology Limited, priority 2011, dated 2019).

target: T1, kinase-domain human PKCι (Homo sapiens, UniProt P41743); assay: PKCι IC50 IMAP fluorescence polarisation assay, kinase-domain enzyme; assay type: biochemical; settings: kinase domain PKCi at 2 μM ATP; read-out: IC50 in IMAP assay against kinase domain PKCi
T1 construct: Recombinant, kinase-domain human PKCι is expressed and purified in-house; made in house
T1 sequence (P41743 254-522 limits assumed): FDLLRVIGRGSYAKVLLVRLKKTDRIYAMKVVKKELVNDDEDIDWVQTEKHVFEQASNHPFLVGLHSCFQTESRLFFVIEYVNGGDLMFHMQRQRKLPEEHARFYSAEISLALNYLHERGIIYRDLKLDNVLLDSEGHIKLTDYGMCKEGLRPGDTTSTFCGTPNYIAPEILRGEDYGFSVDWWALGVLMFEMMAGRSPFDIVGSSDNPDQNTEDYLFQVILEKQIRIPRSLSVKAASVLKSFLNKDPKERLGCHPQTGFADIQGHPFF

IC50	SMILES
1 to 10 µM	Cc1csc2c(NC[C@@H](C)N)nc(-c3ccncc3)nc12 [compound 369, (R)-N*1*-(7-Methyl-2-pyridin-4-yl-thieno[3,2-d]pyrimidin-4-yl)-propane-1,2-diamine]
10 to 40 µM	Cc1csc2c(OC[C@@H](N)Cc3ccccc3)nc(-c3ccncc3)nc12 [compound 481, (S)-1-(7-Methyl-2-pyridin-4-yl-thieno[3,2-d]pyrimidin-4-yloxymethyl)-2-phenyl-ethylamine]
10 to 40 µM	N[C@@H](COc1nc(-c2ccncc2)nc2c1sc1cccc(Cl)c12)Cc1ccccc1 [compound 477, (R)-1-(9-Chloro-2-pyridin-4-yl-benzo[4,5]thieno[3,2-d]pyrimidin-4-yloxymethyl)-2-phenyl-ethylamine]
0.1 to 1 µM	Cc1cc(C)c2c(n1)sc1c(NC[C@H](C)N)nc(-c3ccncc3)nc12 [compound 382, (S)-N*1*-(7,9-Dimethyl-2-pyridin-4-yl-pyrido[3′,2′:4,5]thieno[3,2-d]pyrimidin-4-yl)-propane-1,2-diamine]

same assay, conditions: kinase domain PKCi at 2 μM ATP; read-out: IC50 in IMAP assay against kinase domain PKCi (Activity)

SMILES	IC50
CC[C@@H](N)CNc1nc(-c2ccncc2)nc2sc3c(c12)CCCC3 [compound 17, (R)-N*1*-(2-Pyridin-4-yl-5,6,7,8-tetrahydro-benzo[4,5]thieno[2,3-d]pyrimidin-4-yl)-butane-1,2-diamine]	1 to 10 µM
c1n[nH]cc1-c1nc(N2CCCNCC2)c2c3c(sc2n1)CCCC3 [compound 186, 4-[1,4]Diazepan-1-yl-2-(1H-pyrazol-4-yl)-5,6,7,8-tetrahydro-benzo[4,5]thieno[2,3-d]pyrimidine]	0.1 to 1 µM
CC(C)Cc1csc2nc(-c3ccncc3)nc(NCCN)c12 [compound 28, N*1*-(5-Isobutyl-2-pyridin-4-yl-thieno[2,3-d]pyrimidin-4-yl)-ethane-1,2-diamine]	0.1 to 1 µM
NCCNc1nc(-c2ccnc(F)c2)nc2sc3c(c12)CCCC3 [compound 98, N*1*-[2-(2-Fluoro-pyridin-4-yl)-5,6,7,8-tetrahydro-benzo[4,5]thieno[2,3-d]pyrimidin-4-yl]-ethane-1,2-diamine]	10 to 40 µM
c1n[nH]cc1-c1nc(N2CCNCC2)c2c3c(sc2n1)CCCC3 [compound 185, 4-Piperazin-1-yl-2-(1H-pyrazol-4-yl)-5,6,7,8-tetrahydro-benzo[4,5]thieno[2,3-d]pyrimidine]	0.1 to 1 µM
N[C@H](COc1nc(-c2ccncc2)nc2sc3c(c12)CCCC3)Cc1c[nH]c2ccccc12 [compound 158, (S)-2-(1H-Indol-3-yl)-1-(2-pyridin-4-yl-5,6,7,8-tetrahydro-benzo[4,5]thieno[2,3-d]pyrimidin-4-yloxymethyl)-ethylamine]	10 to 40 µM
Cc1n[nH]c(C)c1-c1nc(NC[C@H](C)N)c2c3c(sc2n1)CCCC3 [compound 192, (S)-N*1*-[2-(3,5-Dimethyl-1H-pyrazol-4-yl)-5,6,7,8-tetrahydro-benzo[4,5]thieno[2,3-d]pyrimidin-4-yl]-propane-1,2-diamine]	1 to 10 µM
CC(C)C[C@@H](N)COc1nc(-c2ccncc2)nc2sc3c(c12)CCCC3 [compound 146, (R)-3-Methyl-1-(2-pyridin-4-yl-5,6,7,8-tetrahydro-benzo[4,5]thieno[2,3-d]pyrimidin-4-yloxymethyl)-butylamine]	1 to 10 µM
CC(C)C[C@@H](N)CNc1nc(-c2ccncc2)nc2sc3c(c12)CCCC3 [compound 16, (R)-4-Methyl-N*1*-(2-pyridin-4-yl-5,6,7,8-tetrahydro-benzo[4,5]thieno[2,3-d]pyrimidin-4-yl)-pentane-1,2-diamine]	1 to 10 µM
N[C@H](COc1nc(-c2ccncc2)nc2sc3c(c12)CCCC3)Cc1c[nH]cn1 [compound 175, (S)-1-(1H-Imidazol-4-ylmethyl)-2-(2-pyridin-4-yl-5,6,7,8-tetrahydro-benzo[4,5]thieno[2,3-d]pyrimidin-4-yloxy)-ethylamine]	10 to 40 µM

Next, values leading:

IC50	SMILES
1 to 10 µM	c1cc(-c2nc(OC[C@H]3CCCCN3)c3c4c(sc3n2)CCCC4)ccn1 [compound 178, 4-((R)-1-Piperidin-2-ylmethoxy)-2-pyridin-4-yl-5,6,7,8-tetrahydro-benzo[4,5]thieno[2,3-d]pyrimidine]
1 to 10 µM	N[C@H](COc1nc(-c2ccncc2)nc2sc3c(c12)CCCC3)Cc1cccc(F)c1 [compound 163, (S)-1-(3-Fluoro-benzyl)-2-(2-pyridin-4-yl-5,6,7,8-tetrahydro-benzo[4,5]thieno[2,3-d]pyrimidin-4-yloxy)-ethylamine]
10 to 40 µM	FC(F)(F)c1ccc(CN2CCN(c3nc(-c4ccncc4)nc4sc5c(c34)CCCC5)CC2)cc1 [compound 121, 2-Pyridin-4-yl-4-[4-(4-trifluoromethyl-benzyl)-piperazin-1-yl]-5,6,7,8-tetrahydro-benzo[4,5]thieno[2,3-d]pyrimidine]
0.1 to 1 µM	c1cc(-c2nc(N[C@@H]3CCNC3)c3c4c(sc3n2)CCCC4)ccn1 [compound 19, (2-pyridin-4-yl-5,6,7,8-tetrahydro-benzo[4,5]thieno[2,3-d]pyrimidin-4-yl)-(R)-pyrrolidin-3-yl-amine]
10 to 40 µM	Brc1ccc(CN2CCN(c3nc(-c4ccncc4)nc4sc5c(c34)CCCC5)CC2)cc1 [compound 117, 4-[4-(4-Bromo-benzyl)-piperazin-1-yl]-2-pyridin-4-yl-5,6,7,8-tetrahydro-benzo[4,5]thieno[2,3-d]pyrimidine]
1 to 10 µM	CCN1CCN(c2nc(-c3ccncc3)nc3sc4c(c23)CCCC4)CC1 [compound 119, 4-(4-Ethyl-piperazin-1-yl)-2-pyridin-4-yl-5,6,7,8-tetrahydro-benzo[4,5]thieno[2,3-d]pyrimidine]
10 to 40 µM	Oc1cccc(CN2CCN(c3nc(-c4ccncc4)nc4sc5c(c34)CCCC5)CC2)c1 [compound 126, 3-[4-(2-Pyridin-4-yl-5,6,7,8-tetrahydro-benzo[4,5]thieno[2,3-d]pyrimidin-4-yl)-piperazin-1-ylmethyl]-phenol]
0.1 to 1 µM	NCCOc1nc(-c2ccncc2)nc2sc3c(c12)CCCC3 [compound 136]
10 to 40 µM	c1ccc(CN2CCN(c3nc(-c4ccncc4)nc4sc5c(c34)CCCC5)CC2)nc1 [compound 120, 2-Pyridin-4-yl-4-(4-pyridin-2-ylmethyl-piperazin-1-yl)-5,6,7,8-tetrahydro-benzo[4,5]thieno[2,3-d]pyrimidine]
